{"source": "a melting point compilation (Tetko et al.; mined from patent text by program, amines drawn as free bases though some values may be those of a salt)", "data": [{"units": {"melting point": "°C"}, "values": [{"smiles": "CCC(=O)N1CCN(c2ccc(NC(=O)c3cc(=O)c4cc(F)cc(N5CCN(C)CC5)c4o3)cc2)CC1", "melting point": "244 to 245"}, {"smiles": "CCOC(=O)NN=C(C)c1ccccn1", "melting point": 113}, {"smiles": "COc1ccc(NCC(=O)N2CCC(Cc3ccccc3)CC2)cc1", "melting point": "117 to 119"}, {"smiles": "CC(C)[C@H](NC(=O)N(C)Cc1csc(C2CCC2)n1)C(=O)N[C@@H](Cc1ccccc1)C[C@H](O)[C@H](Cc1ccccc1)NC(=O)OCc1cncs1", "melting point": "74 to 76"}, {"smiles": "CCOC(=O)CN(C(=O)CC)c1c(SC(F)(F)F)c(C)nn1-c1c(Cl)cc(C(F)(F)F)cc1Cl", "melting point": "73 to 74"}, {"smiles": "O=C(NCCCCCC(=O)C(F)(F)F)OCC1c2ccccc2-c2ccccc21", "melting point": "83 to 88"}, {"smiles": "CCCCc1nn(Cc2ccc(C#N)cc2)c2ccccc2c1=O", "melting point": 180}, {"smiles": "CC(=O)N1c2c(ccn3c(C)c(C)nc23)[C@@H](O)[C@H](OC(=O)C(C)(C)C)[C@H]1c1ccccc1", "melting point": "103 to 105"}, {"smiles": "CCOC(=O)N(c1ccc(Cl)cc1N)c1ccc(Cl)cc1Cl", "melting point": "137 to 139"}, {"smiles": "CCc1c(C#N)oc2ccc(Br)cc12", "melting point": "68 to 69"}, {"smiles": "CC1CC(=O)NN=C1c1ccc2c(c1)C(C)(C)CC(=O)N2C", "note": "(stereo not drawn)", "melting point": "238 to 241"}, {"smiles": "COCc1cc2c(cc1O)CCC1C2CCC2(C)C(=O)CCC12", "note": "(stereo not drawn)", "melting point": "149 to 151"}, {"smiles": "CS(=O)(=O)OCCc1ccc(N2CCCC2=O)cc1", "melting point": 94}, {"smiles": "CCc1nc2c(C)cc(C)nc2n1Cc1ccc2c(c1)CCc1ccccc1N2Cc1ccccc1C#N", "melting point": "133 to 135"}, {"smiles": "CC(=O)OC1C(Oc2cccc(O)c2C(=O)CCc2ccc3occc3c2)OC(CO)C(O)C1OC(C)=O", "note": "(stereo not drawn)", "melting point": "127 to 129"}, {"smiles": "CCOC(=O)c1cn(C2CC2)c2c(OC(F)F)c(F)c(F)c([N+](=O)[O-])c2c1=O", "melting point": "262 to 268"}, {"smiles": "Cc1ccc(C(=O)CCCCCBr)cc1C", "melting point": "61 to 63"}, {"smiles": "Cc1onc(NS(=O)(=O)c2ccccc2)c1Br", "melting point": "128 to 130"}, {"smiles": "Cc1cccc(C(=O)Nc2ccc(S(N)(=O)=O)cc2)c1SSc1c(C)cccc1C(=O)Nc1ccc(S(N)(=O)=O)cc1", "melting point": "308 to 309"}, {"smiles": "CCCc1nn(C)c2c(=O)[nH]c(-c3cc(CCC(=O)O)ccc3OCC)nc12", "melting point": "165 to 167"}, {"smiles": "CON1C(=O)CC2(CCN(C(=O)OC(C)(C)C)CC2)C1=O", "melting point": 117}, {"smiles": "CCC(=O)OC1=C(CCCCCCCCC[Si](C)(C)C)C(=O)c2ccccc2C1=O", "melting point": "41 to 43"}, {"smiles": "COC1COc2cc(NS(C)(=O)=O)c(Oc3ccccc3)cc2C1=O", "note": "(stereo not drawn)", "melting point": "139 to 141"}, {"smiles": "C=C(COCc1ccccc1)C(O)C(NC=O)C(=O)OCC", "note": "(stereo not drawn)", "melting point": "112 to 114"}, {"smiles": "COc1cc(C(=O)C#CCOCC=C(C)C)cc(OC)c1OC", "melting point": 32}, {"smiles": "CCOC(=O)CC1c2cccn2S(=O)(=O)c2ccccc2N1C(=O)c1ccccc1", "note": "(stereo not drawn)", "melting point": "178 to 181"}, {"smiles": "O=C(OCc1ccccc1)c1ccc(CCCOCCCCCCNCC(O)c2ccc(O)c(CO)c2)cc1", "note": "(stereo not drawn)", "melting point": "51 to 52"}, {"smiles": "Cc1nc(N)c2nc(C)n(CCCCCSc3ccccc3)c2c1C", "melting point": "181 to 183"}, {"smiles": "O=C(O)c1cccc(-c2cc(-c3ccccc3)on2)c1", "melting point": "250 to 251"}, {"smiles": "COc1cc(OCCN(C)C)ccc1/C=C/c1cc(/C=C/c2ccc3cc[nH]c3c2)[nH]n1", "melting point": "109 to 112"}, {"smiles": "COc1ccc(N2CCN(c3ccc(-n4c(C)nnc4S)cc3)CC2)cc1", "melting point": 260}, {"smiles": "CCOC(=O)CNC(=O)[C@@H]1CS[C@H](c2ccccc2O)N1C(=O)CCSC(=O)c1ccccc1", "melting point": "134 to 135"}, {"smiles": "COc1ccc(Br)c2nc(SCc3ccccc3)nn12", "melting point": "78 to 79"}, {"smiles": "O=C(C[C@@H](CCCC1CCCCC1)c1nc(CNC2CCC2)no1)NO", "melting point": "82 to 83.9"}, {"smiles": "CN(C(=O)OC(C)(C)C)[C@H](Cc1ccc(Cl)c(Cl)c1)[C@H](O)CC(=O)N[C@@H]1CCCCNC1=O", "melting point": 187}, {"smiles": "COC(=O)COc1ccc(C(=O)C(C)(C)Br)cc1", "melting point": "46 to 50"}, {"smiles": "CCOC(=O)c1nc2c(Cl)nc3cc(C(F)(F)F)ccc3n2c1C", "melting point": "182 to 183"}, {"smiles": "CN(C)C(=O)Oc1ccc2c(c1)N(Cc1ccccc1)CCC2", "melting point": 104}, {"smiles": "CC1CCc2ccc(OCC(O)CCl)cc2O1", "note": "(stereo not drawn)", "melting point": "70 to 72"}, {"smiles": "Cn1nnnc1SCCCC(=O)c1ccccn1", "melting point": "73 to 75"}, {"smiles": "CCOc1ccc(CC(=O)O)cc1OCCCc1cn(-c2ccc(C(F)(F)F)cn2)nc1C(C)C", "melting point": "116 to 117"}, {"smiles": "O=S(=O)(c1ccc(Cl)cc1)N1CCCC1c1cccc(Cl)c1", "note": "(racemic)", "melting point": 99}, {"smiles": "CC1(C)COC(c2c(Cl)cc(Cl)cc2-c2ccc(F)cc2)=N1", "melting point": "93 to 95"}, {"smiles": "O=C(O)c1nc(Sc2ccccc2)ccc1Sc1ccccc1", "melting point": "131 to 132"}, {"smiles": "O=C1NCCN1c1ccc(S(=O)(=O)Nc2cccc(Oc3ccccc3)c2)cc1", "melting point": "208 to 211"}, {"smiles": "Cc1ccc(NC(=O)Cc2ccccc2C(=O)O)cc1/C=C/c1nc(C(C)C)cs1", "melting point": "181 to 183"}, {"smiles": "COc1ccc(NC(=O)CCCC(O)c2ccc(OC)cc2)cc1", "note": "(stereo not drawn)", "melting point": "118 to 120"}, {"smiles": "O=C(O)COc1ccc(SCc2ccc(OC3CCc4cc(Cl)ccc43)cc2)c2c1CCC2", "note": "(stereo not drawn)", "melting point": "169 to 170"}, {"smiles": "CCOc1sc(C(N)=O)c2c1-c1c(cnn1C)CC2", "melting point": "200 to 202"}, {"smiles": "COC(=O)c1cccc(Nc2nccc(-c3cn[nH]c3-c3ccc(F)cc3)n2)c1", "melting point": "> 265"}, {"smiles": "Cc1cc(Br)cnc1CCCCNc1ncc(Cc2ccn(C)c(=O)c2)c(=O)[nH]1", "melting point": "203 to 204"}, {"smiles": "COc1cc(Cc2cnc(NC(=O)C(C)(C)C)nc2NC(=O)C(C)(C)C)cc(OC)c1OC", "melting point": "153 to 154"}, {"smiles": "CC(C)C(=O)O[C@H]1[C@H](C)OC(=O)[C@@H](NC(=O)OC(C)(C)C)COC(=O)[C@@H]1Cc1ccccc1", "melting point": "143 to 145"}, {"smiles": "S=C(N=c1ccn(-c2ccccc2)nc1)Nc1ccccc1", "melting point": "171 to 173"}, {"smiles": "CN1C(=N)CN(c2ccccc2)C1=O", "melting point": "156 to 158"}, {"smiles": "O=C(c1ccc(-c2ccccc2)cc1)N1Cc2cccn2Cc2ncccc21", "melting point": "171 to 172"}, {"smiles": "CC(=O)c1cccn1N1C(=O)c2ccccc2C1=O", "melting point": "204 to 205"}, {"smiles": "CC(Oc1ccc2c(c1)C(O)C(Cc1cccc(C(=O)O)c1)CO2)c1ccc2ccccc2n1", "note": "(stereo not drawn)", "melting point": "70 to 73"}, {"smiles": "CN1CCC(C(=O)Nc2cccc(-c3ccnc4c(C(=O)c5cccs5)cnn34)c2)CC1", "melting point": 236}, {"smiles": "Cc1ccc(S(=O)(=O)N2CCC[C@H]2C(=O)N[C@@H](Cc2ccccc2)C(=O)NOCc2ccccc2)cc1", "melting point": "127 to 130"}, {"smiles": "O=C(Nc1cccc(S(=O)(=O)NC2CC2)c1)c1cnn2c(C(F)(F)F)cc(-c3ccc(Cl)cc3)nc12", "melting point": 257}, {"smiles": "CCOC(=O)c1cc2c(C)ccc(OCCO)c2[nH]1", "melting point": "166 to 167"}, {"smiles": "c1ccc(-c2n[nH]c3c2Cc2ccccc2-3)cc1", "melting point": "234 to 236"}, {"smiles": "CCOC(=O)C(=NOC)c1noc(C(Cl)(Cl)Cl)n1", "melting point": "143 to 146"}, {"smiles": "O=C(Nc1cccc(-c2ccnc3c(C(=O)c4cccs4)cnn23)c1)c1ccccc1F", "melting point": "190 to 191"}, {"smiles": "CC1(C)CC=C(S(=O)(=O)c2ccccc2)CC1", "melting point": "51 to 53"}, {"smiles": "Fc1ccc(C2(Cn3ncnc3S)OC2c2ccccc2Cl)cc1", "note": "(stereo not drawn)", "melting point": "179 to 180"}, {"smiles": "COc1ccc(S(=O)(=O)C2(C(=O)O)CCN(CCCc3ccccc3)CC2)cc1", "melting point": 203}, {"smiles": "CN(C)C=C1Cc2c(Cl)cccc2C1=O", "melting point": "148 to 150"}, {"smiles": "CCCc1nc2c(N)nc3cc(OCCOCCNS(C)(=O)=O)ccc3c2s1", "melting point": "134 to 137"}, {"smiles": "O=c1[nH]c2c([nH]c1=O)C(O)c1ccccc1-2", "note": "(stereo not drawn)", "melting point": "> 300"}, {"smiles": "Cc1ccc(N2CCN(C(=O)NCCN(C)C)CC2)cc1", "melting point": "85 to 88"}, {"smiles": "O=c1ccc2c([nH]1)CCN(Cc1ccccc1)C2", "melting point": "210 to 212"}, {"smiles": "Cn1cc(-c2cc3cccnc3[nH]2)c2cc(O)ccc21", "melting point": "199 to 200"}, {"smiles": "CCOC(=O)c1c(O)n(C)c2cc(-c3ccncc3)ccc2c1=O", "melting point": 184}, {"smiles": "Cc1oc(-c2ccccc2)nc1C(C)O", "note": "(stereo not drawn)", "melting point": "101 to 102"}, {"smiles": "Nc1nc(-n2cc(C(=O)O)c(=O)c3cc(F)c(F)c(Cl)c32)c(F)cc1Cl", "melting point": 280}, {"smiles": "Cn1nc(Sc2cc(C(F)(F)F)ccc2C#N)n(C)c1=O", "melting point": 113}, {"smiles": "C[C@H]1OC(=O)[C@@H]2C=C3CCCC[C@H]3[C@H](O)[C@H]12", "melting point": "156 to 157"}, {"smiles": "c1ccc(Nc2nc(-c3ccncc3)nc3ccccc23)cc1", "melting point": "270 to 274"}, {"smiles": "CSC(=O)C(=O)c1ccc2oc(-c3ccccc3)cc2c1", "melting point": "124 to 126"}, {"smiles": "N#CCOc1cccc(COc2ccc(OCc3ccc4ccccc4n3)cc2)c1", "melting point": "110 to 114"}, {"smiles": "Cc1c(Cl)cc(C(C)C)c(-c2c(C(C)C)cc(Cl)c(C)c2O)c1O", "melting point": 98}, {"smiles": "COn1c(=S)n(C)c(=O)c2ccccc21", "melting point": 184}, {"smiles": "Cc1ccc(S(=O)(=O)N2[C@H](CCCO)CC[C@H]2c2ccc(F)cc2)cc1", "melting point": 96}, {"smiles": "CC1CCC2=NNC(=O)CC2C1", "note": "(stereo not drawn)", "melting point": "116 to 118"}, {"smiles": "COC(=O)c1cccc(NC(N)=S)c1", "melting point": "171 to 172"}, {"smiles": "COc1ccc(S(=O)(=O)N2C(=O)C(O[Si](C)(C)C)(c3ccccc3C(F)(F)F)c3cc(Cl)ccc32)c(OC)c1", "note": "(stereo not drawn)", "melting point": "144 to 145"}, {"smiles": "CCOC(=O)c1ccc(-c2csc(-c3ccc(C(F)(F)F)cc3)n2)cc1", "melting point": "163 to 164"}, {"smiles": "CNC(=C[N+](=O)[O-])NCCSCc1cc(CN2CCCC2)cs1", "melting point": "109 to 111"}, {"smiles": "COC(=O)c1c(Cl)cc(Cl)cc1NC(=O)CSc1ccc(NC(=O)c2ccco2)cc1", "melting point": "133 to 135"}, {"smiles": "COc1cc2ncc(C#N)c(Nc3ccc(F)cc3)c2cc1OC", "melting point": "282 to 285"}, {"smiles": "NS(=O)(=O)c1cc(C(=O)O)cc([N+](=O)[O-])c1Oc1cccc(Cl)c1", "melting point": "230 to 232"}, {"smiles": "CC(c1ccc(-c2ccccc2)c(F)c1)c1nc(CCCl)no1", "note": "(stereo not drawn)", "melting point": "72 to 72.5"}, {"smiles": "C[Si](C)(C)OC(Cn1ccnc1)(Cn1cncn1)c1ccc(Cl)cc1Cl", "note": "(stereo not drawn)", "melting point": "82 to 85"}, {"smiles": "COc1ccc(COc2ccc3cc(C(C)C(=O)O)ccc3c2)cc1OC1CC2CCC1C2", "note": "(stereo not drawn)", "melting point": "125 to 128"}, {"smiles": "CC1(C)C(=O)N(C(=O)NCC2CCN(CC3(C(=O)O)CCC3)CC2)c2cc(F)ccc21", "melting point": 193}, {"smiles": "CCOC(=O)c1c[nH]c(C2CCN(CCC(CN(C)C(=O)c3ccccc3)c3ccc(Cl)c(Cl)c3)CC2)n1", "note": "(stereo not drawn)", "melting point": "96 to 102"}]}]}
